We go through one molecule from article PMC8799717, “Pharmacological targeting PIKfyve and tubulin as an effective treatment strategy for double-hit lymphoma” (Cell Death Discovery, 2022).

Targets include ZAP70 (Homo sapiens, UniProt P43403); EGFR(E746-A750del) (Homo sapiens, UniProt P00533, DEL746-750); MARK2 (Homo sapiens, UniProt Q7KZI7); DYRK2 (Homo sapiens, UniProt Q92630); LIMK1 (Homo sapiens, UniProt P53667); ITK (Homo sapiens, UniProt Q08881); CAMK1 (Homo sapiens, UniProt Q14012); FLT3(N841I) (Homo sapiens, UniProt P36888, N841I); CSNK2A1 (Homo sapiens, UniProt P68400); VRK2 (Homo sapiens, UniProt Q86Y07); SRC (Homo sapiens, UniProt P12931); MYLK (Homo sapiens, UniProt Q15746); FLT4 (Homo sapiens, UniProt P35916); AURKA (Homo sapiens, UniProt O14965); CSNK1A1 (Homo sapiens, UniProt P48729).

What all share (test): biochemical
Common to all, as to set-up: KINOMEscan active-site-directed competition binding panel, 468 kinases, percent of DMSO control at 1 uM
What all share (details): KINOMEscan binding, percent of DMSO control; read-out: Ctrl%

Another experiment concerns the target T1, p38-alpha (Homo sapiens, UniProt Q16539).
T1 construct: gene MAPK14

In the next experiment the target is T2, ABL1-nonphosphorylated (Homo sapiens, UniProt P00519).
T2 construct: nonphosphorylated

A further experiment deals with T3, NIM1 (Homo sapiens, UniProt Q8IY84).
T3 construct: gene NIM1K
T3 sequence (Q8IY84 whole entry): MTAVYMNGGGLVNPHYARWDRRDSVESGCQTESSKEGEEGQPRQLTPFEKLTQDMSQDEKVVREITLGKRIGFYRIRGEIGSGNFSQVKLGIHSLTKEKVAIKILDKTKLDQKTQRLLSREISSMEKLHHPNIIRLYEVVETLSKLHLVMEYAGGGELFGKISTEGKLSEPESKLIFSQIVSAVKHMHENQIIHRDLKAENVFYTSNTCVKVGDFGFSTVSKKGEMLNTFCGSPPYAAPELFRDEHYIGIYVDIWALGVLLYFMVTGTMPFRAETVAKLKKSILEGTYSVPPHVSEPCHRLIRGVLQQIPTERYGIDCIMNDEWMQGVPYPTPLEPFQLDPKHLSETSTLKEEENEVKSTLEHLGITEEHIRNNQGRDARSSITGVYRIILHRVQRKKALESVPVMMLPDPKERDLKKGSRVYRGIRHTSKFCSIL

A further experiment concerns the target T4, PRKR (Homo sapiens, UniProt P19525).
T4 construct: gene EIF2AK2

Experiment [1] has as its target T5, ABL1(H396P)-nonphosphorylated (Homo sapiens, UniProt P00519, H396P).
T5 construct: nonphosphorylated

The next experiment deals with T6, MKK7 (Homo sapiens, UniProt O14733).
T6 construct: gene MAP2K7
T6 sequence (O14733 whole entry): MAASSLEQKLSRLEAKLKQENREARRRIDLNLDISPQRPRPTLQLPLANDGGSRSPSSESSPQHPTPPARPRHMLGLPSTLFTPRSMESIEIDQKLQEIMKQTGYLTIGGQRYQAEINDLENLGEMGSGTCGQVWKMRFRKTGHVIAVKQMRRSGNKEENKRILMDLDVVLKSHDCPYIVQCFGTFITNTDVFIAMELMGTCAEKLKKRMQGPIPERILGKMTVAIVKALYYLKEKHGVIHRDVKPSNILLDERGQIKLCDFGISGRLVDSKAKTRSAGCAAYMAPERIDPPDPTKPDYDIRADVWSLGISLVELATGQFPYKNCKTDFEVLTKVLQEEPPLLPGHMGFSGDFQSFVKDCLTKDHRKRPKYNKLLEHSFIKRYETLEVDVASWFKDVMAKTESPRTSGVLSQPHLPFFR

Experiment [2] has as its target T7, JAK3(JH1domain-catalytic) (Homo sapiens, UniProt P52333).
T7 construct: JH1domain-catalytic

A further experiment concerns the target T8, JNK2 (Homo sapiens, UniProt P45984).
T8 construct: gene MAPK9

The next experiment concerns the target T9, YANK1 (Homo sapiens, UniProt Q8WU08).
T9 construct: gene STK32A

Chain of FLT4 (P35916 whole entry): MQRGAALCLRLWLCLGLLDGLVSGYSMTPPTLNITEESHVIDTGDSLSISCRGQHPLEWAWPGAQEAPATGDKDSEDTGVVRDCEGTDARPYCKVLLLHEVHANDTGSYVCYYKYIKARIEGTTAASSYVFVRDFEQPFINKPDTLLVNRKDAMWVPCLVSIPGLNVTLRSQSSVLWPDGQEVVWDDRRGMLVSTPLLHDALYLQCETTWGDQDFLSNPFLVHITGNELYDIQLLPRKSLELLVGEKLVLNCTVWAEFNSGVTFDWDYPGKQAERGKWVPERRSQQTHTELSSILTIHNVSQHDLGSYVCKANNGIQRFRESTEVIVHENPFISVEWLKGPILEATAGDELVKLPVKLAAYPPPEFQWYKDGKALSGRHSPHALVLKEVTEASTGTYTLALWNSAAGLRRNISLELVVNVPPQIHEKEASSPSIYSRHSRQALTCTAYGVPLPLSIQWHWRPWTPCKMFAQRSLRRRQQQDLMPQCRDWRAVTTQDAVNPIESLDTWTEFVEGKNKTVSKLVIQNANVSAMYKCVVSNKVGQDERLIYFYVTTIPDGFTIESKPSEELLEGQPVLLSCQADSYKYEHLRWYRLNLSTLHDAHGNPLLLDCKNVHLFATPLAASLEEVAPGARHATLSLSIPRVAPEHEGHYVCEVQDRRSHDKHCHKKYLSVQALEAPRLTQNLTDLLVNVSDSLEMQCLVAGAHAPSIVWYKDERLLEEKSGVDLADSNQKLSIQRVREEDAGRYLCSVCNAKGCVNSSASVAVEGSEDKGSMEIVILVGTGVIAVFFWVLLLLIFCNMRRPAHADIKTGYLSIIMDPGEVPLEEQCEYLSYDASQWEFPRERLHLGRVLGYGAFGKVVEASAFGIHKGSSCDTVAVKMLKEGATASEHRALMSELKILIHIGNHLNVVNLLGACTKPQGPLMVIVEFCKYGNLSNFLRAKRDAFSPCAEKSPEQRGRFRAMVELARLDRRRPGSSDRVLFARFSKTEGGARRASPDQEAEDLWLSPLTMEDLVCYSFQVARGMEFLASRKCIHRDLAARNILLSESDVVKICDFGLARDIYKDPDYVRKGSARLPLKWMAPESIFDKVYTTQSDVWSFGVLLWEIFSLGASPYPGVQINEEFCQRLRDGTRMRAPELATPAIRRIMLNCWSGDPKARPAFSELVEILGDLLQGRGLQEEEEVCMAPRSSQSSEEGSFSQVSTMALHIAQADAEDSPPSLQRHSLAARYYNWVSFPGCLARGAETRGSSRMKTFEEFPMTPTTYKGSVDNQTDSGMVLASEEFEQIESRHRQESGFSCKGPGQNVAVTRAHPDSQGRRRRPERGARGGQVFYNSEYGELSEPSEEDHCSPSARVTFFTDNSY
Chain of CSNK1A1 (P48729 whole entry): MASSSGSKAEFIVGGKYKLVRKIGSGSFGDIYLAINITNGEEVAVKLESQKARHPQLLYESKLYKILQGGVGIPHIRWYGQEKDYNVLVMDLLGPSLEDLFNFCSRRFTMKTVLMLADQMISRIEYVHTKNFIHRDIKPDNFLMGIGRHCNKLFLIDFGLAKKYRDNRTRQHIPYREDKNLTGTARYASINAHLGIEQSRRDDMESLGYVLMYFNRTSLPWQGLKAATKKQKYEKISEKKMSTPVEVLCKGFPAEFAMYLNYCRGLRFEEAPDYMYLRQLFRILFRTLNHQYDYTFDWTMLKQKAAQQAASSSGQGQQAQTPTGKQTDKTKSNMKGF
Chain of ZAP70 (P43403 whole entry): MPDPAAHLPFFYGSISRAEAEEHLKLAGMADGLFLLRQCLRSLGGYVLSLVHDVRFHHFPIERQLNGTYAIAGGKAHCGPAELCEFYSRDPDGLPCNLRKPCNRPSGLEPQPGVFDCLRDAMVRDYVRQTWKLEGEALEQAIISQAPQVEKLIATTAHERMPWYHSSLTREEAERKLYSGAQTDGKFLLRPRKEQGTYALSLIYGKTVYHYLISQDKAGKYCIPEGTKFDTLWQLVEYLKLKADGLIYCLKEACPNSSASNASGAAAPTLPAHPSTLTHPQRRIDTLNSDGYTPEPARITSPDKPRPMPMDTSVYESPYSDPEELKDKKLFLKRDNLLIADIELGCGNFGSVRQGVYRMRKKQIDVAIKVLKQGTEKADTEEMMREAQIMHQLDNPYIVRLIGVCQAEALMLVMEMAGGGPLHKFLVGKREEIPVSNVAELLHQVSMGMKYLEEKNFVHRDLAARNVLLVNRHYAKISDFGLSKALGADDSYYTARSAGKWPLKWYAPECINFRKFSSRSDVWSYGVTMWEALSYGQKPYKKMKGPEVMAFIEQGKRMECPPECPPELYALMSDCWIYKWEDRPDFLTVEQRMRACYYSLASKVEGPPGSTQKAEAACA
Chain of DYRK2 (Q92630 whole entry): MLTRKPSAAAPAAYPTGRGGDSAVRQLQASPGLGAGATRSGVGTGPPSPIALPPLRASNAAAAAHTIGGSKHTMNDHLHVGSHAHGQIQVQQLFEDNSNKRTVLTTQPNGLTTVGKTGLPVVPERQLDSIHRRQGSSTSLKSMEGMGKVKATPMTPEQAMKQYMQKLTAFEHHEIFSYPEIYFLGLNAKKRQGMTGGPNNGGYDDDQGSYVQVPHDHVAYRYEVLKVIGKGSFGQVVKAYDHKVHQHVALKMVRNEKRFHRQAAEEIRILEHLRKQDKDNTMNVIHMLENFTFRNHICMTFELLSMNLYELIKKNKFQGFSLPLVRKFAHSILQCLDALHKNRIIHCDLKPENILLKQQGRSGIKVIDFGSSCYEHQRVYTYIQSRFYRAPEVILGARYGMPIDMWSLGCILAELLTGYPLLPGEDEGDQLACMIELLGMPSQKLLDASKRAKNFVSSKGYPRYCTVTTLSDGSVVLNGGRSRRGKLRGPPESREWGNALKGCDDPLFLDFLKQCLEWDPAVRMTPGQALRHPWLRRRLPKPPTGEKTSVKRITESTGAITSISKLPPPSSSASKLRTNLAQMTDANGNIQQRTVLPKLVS
T4 sequence (P19525 whole entry): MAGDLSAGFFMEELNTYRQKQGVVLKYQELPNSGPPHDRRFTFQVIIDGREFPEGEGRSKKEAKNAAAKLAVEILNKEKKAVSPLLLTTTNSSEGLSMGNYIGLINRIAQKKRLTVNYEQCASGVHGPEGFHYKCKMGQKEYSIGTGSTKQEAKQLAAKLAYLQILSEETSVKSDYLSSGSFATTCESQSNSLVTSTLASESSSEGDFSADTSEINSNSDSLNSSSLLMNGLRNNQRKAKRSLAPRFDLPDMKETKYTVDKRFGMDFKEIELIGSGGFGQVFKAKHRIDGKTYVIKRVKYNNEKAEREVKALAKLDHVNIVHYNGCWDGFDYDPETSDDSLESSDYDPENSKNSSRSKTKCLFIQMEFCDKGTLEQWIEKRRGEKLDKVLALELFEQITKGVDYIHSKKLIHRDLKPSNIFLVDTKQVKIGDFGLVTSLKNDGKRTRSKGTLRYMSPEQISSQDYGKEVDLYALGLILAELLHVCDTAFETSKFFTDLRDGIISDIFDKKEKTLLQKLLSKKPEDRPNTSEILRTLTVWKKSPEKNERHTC
Chain of ITK (Q08881 whole entry): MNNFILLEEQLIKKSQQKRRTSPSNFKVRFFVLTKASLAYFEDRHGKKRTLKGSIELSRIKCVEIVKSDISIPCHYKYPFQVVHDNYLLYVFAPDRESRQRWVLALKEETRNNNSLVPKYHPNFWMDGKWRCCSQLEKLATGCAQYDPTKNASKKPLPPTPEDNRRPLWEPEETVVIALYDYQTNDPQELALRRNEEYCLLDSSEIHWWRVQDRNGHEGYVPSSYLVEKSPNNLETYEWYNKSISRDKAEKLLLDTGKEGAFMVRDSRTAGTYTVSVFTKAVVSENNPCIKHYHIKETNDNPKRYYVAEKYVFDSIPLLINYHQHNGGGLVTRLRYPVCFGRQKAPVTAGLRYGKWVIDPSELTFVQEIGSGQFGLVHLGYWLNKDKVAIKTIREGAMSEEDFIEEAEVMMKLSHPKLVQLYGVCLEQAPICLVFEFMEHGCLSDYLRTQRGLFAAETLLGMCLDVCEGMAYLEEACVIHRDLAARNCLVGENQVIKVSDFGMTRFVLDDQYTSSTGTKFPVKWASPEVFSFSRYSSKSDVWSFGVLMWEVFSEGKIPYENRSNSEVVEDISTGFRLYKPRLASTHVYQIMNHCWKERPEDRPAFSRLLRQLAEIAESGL

In the case of `Cc1ccc(NC(=O)c2cccc(C(F)(F)F)c2)cc1Nc1cc(-c2cccnc2)nc2[nH]ccc12` [HZX-02-059], the remaining binding at 1 µM at p38-alpha was determined as 77%; on ABL1-nonphosphorylated it was 14%; at ZAP70, 76%; on EGFR(E746-A750del) it was 90%; at MARK2, 78%; on DYRK2, 88%. The remaining binding at 1 µM at LIMK1 came to 72%; at ITK, 100%; at CAMK1, 100%; at NIM1, 99%; at FLT3(N841I), 88%; at CSNK2A1, 81%. Also, the remaining binding at 1 µM at PRKR came to 95%; in [1] it was 55%; at VRK2, 100%; on MKK7 it was 95%; in experiment [2], 100%; at SRC it was 78%. The remaining binding at 1 µM at JNK2 worked out at 99%; on YANK1, 92%; on MYLK, 100%; at FLT4, 94%; on AURKA, 100%; at CSNK1A1, 77%.
